Data taken from the supplement of paper PMC10307832.

How the values were obtained:
Experiment in all cases: relative viability (nuclei count vs DMSO), 5 days (fraction); higher = more cells survive
[1] = compound: Cc1cc(Nc2cc(N3CCN(C)CC3)nc(Sc3ccc(NC(=O)C4CC4)cc3)n2)n[nH]1 [Tozasertib] + CS(=O)(=O)CCNCc1ccc(-c2ccc3ncnc(Nc4ccc(OCc5cccc(F)c5)c(Cl)c4)c3c2)o1 [Lapatinib] (partner 2 µM)
Outline: (§1)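 A single step with final 0.05% Triton X-100, 1% formaldehyde and 1 ug/ml Hoechst fixed the cells and stained nuclei 5 days after treatment. Lung cancer cell lines in 1536-well plates had been treated by pin tool the day after seeding with one drug alone or a fixed anchor-drug dose plus five library-drug doses (not always all listed) in √10 steps, and nuclei were counted on 4× images. Relative viability is the ratio of nuclei in treated wells to nuclei in vehicle wells, taken as the median of duplicate plates.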

[2] = compound: Cc1cc(Nc2cc(N3CCN(C)CC3)nc(Sc3ccc(NC(=O)C4CC4)cc3)n2)n[nH]1 [Tozasertib] + Cc1nc(NC(=O)N2CCC[C@H]2C(N)=O)sc1-c1ccnc(C(C)(C)C(F)(F)F)c1 [Alpelisib] (partner 2 µM)
Outline: as §1

[3] = compound: Cc1cc(Nc2cc(N3CCN(C)CC3)nc(Sc3ccc(NC(=O)C4CC4)cc3)n2)n[nH]1 [Tozasertib] + Cc1nc(Nc2ncc(C(=O)Nc3c(C)cccc3Cl)s2)cc(N2CCN(CCO)CC2)n1 [Dasatinib] (partner 0.075 µM)
Outline: as §1

[4] = compound: Cc1cc(Nc2cc(N3CCN(C)CC3)nc(Sc3ccc(NC(=O)C4CC4)cc3)n2)n[nH]1 [Tozasertib] + Nc1ncn([C@H]2C[C@H](O)[C@@H](CO)O2)c(=O)n1 [Decitabine] (partner 2 µM)
Outline: as §1

[5] = compound: Cc1cc(Nc2cc(N3CCN(C)CC3)nc(Sc3ccc(NC(=O)C4CC4)cc3)n2)n[nH]1 [Tozasertib] + O=C(CCCCCCC(=O)Nc1ccccc1)NO [Vorinostat] (partner 1 µM)
Outline: as §1

Cell Line	relative viability ([1]; first compound 0.004 µM)	relative viability ([1]; first compound 0.01265 µM)	relative viability ([1]; first compound 0.1265 µM)	relative viability ([2]; first compound 0.004 µM)	relative viability ([2]; first compound 0.01265 µM)	relative viability ([2]; first compound 0.04 µM)	relative viability ([2]; first compound 0.1265 µM)	relative viability ([3]; first compound 0.004 µM)	relative viability ([3]; first compound 0.01265 µM)	relative viability ([3]; first compound 0.1265 µM)	relative viability ([4]; first compound 0.004 µM)	relative viability ([4]; first compound 0.01265 µM)	relative viability ([4]; first compound 0.04 µM)	relative viability ([4]; first compound 0.1265 µM)	relative viability ([5]; first compound 0.004 µM)	relative viability ([5]; first compound 0.01265 µM)	relative viability ([5]; first compound 0.1265 µM)	relative viability ([1]; first compound 0.04 µM)	relative viability ([3]; first compound 0.04 µM)	relative viability ([5]; first compound 0.04 µM)
NCI-H1651	0.973	0.806	0.392	0.922	1.01	0.886	1.03	0.433	0.371	0.234	0.608	0.623	0.611	0.437	0.603	0.56	0.361			
NCI-H1666	0.61	0.489	0.298	1.06	0.976	0.973	0.632	0.793	0.71	0.554	0.746	0.68	0.678	0.521	0.988	1.06	0.961	0.578	0.803	1
NCI-H1734	1.06		0.497	0.656	0.64		0.469	0.422	0.444	0.314	0.501	0.51	0.561	0.401	0.711	0.741	0.245		0.452	0.649
NCI-H1755		1.01	0.882	0.518	0.908	0.948	0.629	0.44	0.486	0.312	0.744		0.62	0.644	0.749	0.782	0.675		0.474	0.744
